Tests used:
Sprague-Dawley rats = test: Withdrawal latencies after noxious thermal (laser) stimulation to the ears or hindpaws after intranasal administration; assay type: in vivo, rat; conditions: 10 μg intranasal, tested five minutes after final application
Source text: Activity of an analgesic agent can be tested in a rat model by studying treatment-induced changes in latencies (times) of withdrawal in response to noxious heating of the skin, typically applying a stimulus to an ear or a hindpaw. Thus, application of coherent or non-coherent (non-laser) radiant heat to the ear or hindpaw will elicit rapid withdrawal movements. […] Transmucosal or transdermal administration of analgesic agents can be tested for regional and/or systemic analgesia. After administration of an analgesic agent an increase in latency to withdrawal time of the ear would indicate regional analgesia. A change in the latency to withdrawal time of the hindpaw would indicate whether there was a systemic analgesic effect, i.e. no change in the latency to withdrawal time indicates no systemic effect, while an increase in latency to withdrawal time would indicate a systemic effect.
Rats are housed in a 12/12-hour light/dark environment and are provided food and water ad libitum. […]
Sprague-Dawley rats (Charles River Laboratories) were lightly anesthetized with urethane and placed with minimal restraint on a heating pad to maintain their body temperature at 37° C. […] Baseline withdrawal latencies were measured by delivering 4 separate stimuli with a resting period of approximately 15 minutes between each stimulus. […] As described above, testing sessions were videotaped and analyzed. […]

[1] = system: severe headaches secondary to adult hydrocephalus and multiple shunt surgeries; test: Intranasal oxytocin in a patient, pain rating on VAS (0-10); assay type: in vivo, human
Method: (§1) Upon presentation at the clinic, a patient is asked for a pain assessment (0-10 rating on VAS). The VAS is an 11-point numerical pain rating scale wherein 0 equals “no pain” and 10 equals the “worst pain imaginable”. The analgesic agent is self-administered by nasal applicator. Initially, one puff is given in each nostril. After waiting 15 minutes the patient is asked again for a pain rating and any side effects (e.g. sedation) are assessed. If pain is still present, another puff per nostril is self-administered. After another 15 minutes, pain and side-effects are assessed. If pain is still present, two mote puffs of agent are self-administered. After 15 minutes, pain is rated again, and side effects are assessed. If pain is still present, a final two puffs are given. After another 15 minutes and at 15, 30 and 60 minutes after that, pain and side-effects are re-assessed.
The patient's pain had been unrelieved by treatment with triptans, ergotamines, and high-dose opiates. The patient presented with a pain rating of 8 out of 10 as assessed by the procedure described herein. The patient self-administered oxytocin intranasally at a dose of 4 IU in 0.2 ml. […] Pain relief lasted approximately 24 hours, only briefly interrupted by mild head pain that occurred with activity.
This patient returned to the clinic approximately 1 month later. At this appointment the patient rated the pain as an 8 out of 10. Unbeknownst to them, the patient was first given an intranasal administration of normal saline, in approximately the same volume as used for the oxytocin administration (0.2 ml). No analgesic or other effect was reported by the patient. After waiting 30 minutes, the patient was administered 4 IU of oxytocin intranasally as described above. Within 20-25 minutes, the patient reported that the pain was completely gone. […] Pain returned approximately 24 hours after treatment.

[2] = system: “stress” or tension headache; assay type: in vivo, human; conditions: 4 IU in 0.2 ml intranasal
Method: as §1
A patient was seen reporting a “stress” or tension headache for which they rated their head pain as a 5 out of 10 as assessed by the procedure described herein. The patient was treated with oxytocin administered intranasally at a dose of 4 IU in 0.2 ml. Approximately 10-15 minutes after administration, the patient reported that the pain was completely gone. […] The patient reported being pain free for approximately 48 hours.

“hangover” headache = test: Intranasal oxytocin in a patient, pain rating on VAS (0-10); assay type: in vivo, human; conditions: 24 IU intranasal, baseline 8 out of 10
Method: as §1
A patient was seen reporting a “hangover” headache which was rated as an 8 out of 10 as assessed by the procedure described herein. The patient was treated with oxytocin administered intranasally at a dose of 24 IU. The patient reported that the headache completely resolved within 15 minutes.

“cluster” headache = test: Intranasal oxytocin in a patient with headache; assay type: in vivo, human; conditions: 16 IU intranasal
Method: as §1
A patient was seen reporting having an ongoing strong headache with occasional boring pain on the left side. The pain had lasted for more than 2 weeks and had been diagnosed as a “cluster” headache. The patient was treated with oxytocin administered intranasally at a dose of 16 IU. The patient reported that their headache completely resolved within 15 minutes and relief lasted for 24 hours.

daily migraine = test: Intranasal oxytocin in a patient, pain rating on VAS (0-10); assay type: in vivo, human; conditions: 24 IU intranasal, baseline pain rating 4 out of 10
Method: as §1
A patient was seen after reporting a daily migraine which they rated as a mild to moderate headache with a pain rating of 4 out of 10 as assessed by the procedure described herein. The patient was treated with oxytocin administered intranasally at a dose of 24 IU. The patient reported that the oxytocin decreased the pain to a rating of 2 out of 10.

[3] = system: single pain sensing nerve cells in the trigeminal ganglion; test: Trigeminal ganglion nerve impulses in response to noxious laser pulses to the face; assay type: in vivo, rat; conditions: 10 nmoles applied to the nose, post- vs pre-oxytocin
Method: Sprague-Dawley rats (Charles River Laboratories) were anesthetized with isofluorane and a platinum electrode was inserted transcranially into the trigeminal ganglion. Nerve impulses (action potential) were recorded from single pain sensing nerve cells in the trigeminal ganglion in response to application of noxious laser pulses to the face of the rats. After recording responses to several identical laser pulses, 10 nmoles of oxytocin was applied to the nose of the rats. Thereafter, identical laser pulses were once again applied and recorded.

[4] = system: trigeminal nucleus caudalis wide dynamic range (WDR) neurons; test: Electrical stimulation-induced responses, single unit extracellular recordings in trigeminal nucleus caudalis; assay type: in vivo, rat
Method: Male Sprague-Dawley rats (Charles River Laboratories) were anesthetized with isoflurane and used in the following experiments. In the anesthetized rats, single unit, extracellular recordings were performed in trigeminal nucleus caudalis while stimulating the ipsilateral facial skin with constant-current bipolar electrical stimulation. Epoxylate-insulated, tungsten microelectrodes (10 MOhm) were used under stereotaxic coordinate control.
Shown are responses (action potentials per 30 stimuli) to repeated stimulation of a rat's face before oxytocin administration (pre-oxytocin). After administration with oxytocin at approximately 0.1 IU, responses were recorded every five minutes for 65 minutes. A second administration of oxytocin at the same dosage was administered at approximately 70 minutes after the first dose. The approximate site of the administration of the electrical stimulation is indicated by the black spot on a map of the rat's face (FIG. 3B).

[5] = first visit, 4 IU in 0.2 ml intranasal
[6] = first visit, 4 IU intranasal, baseline pain rating 8 out of 10
[7] = approximately 0.1 IU intranasal, first administration
[8] = second dose, same dosage, approximately 70 minutes after the first

## CC[C@H](C)[C@@H]1NC(=O)[C@H](Cc2ccc(O)cc2)NC(=O)[C@@H](N)CSSC[C@@H](C(=O)N2CCC[C@H]2C(=O)N[C@@H](CC(C)C)C(=O)NCC(N)=O)NC(=O)[C@H](CC(N)=O)NC(=O)[C@H](CCC(N)=O)NC1=O [oxytocin, Cys-Tyr-Ile-Gln-Asn-Cys-Pro-Leu-Gly]
Sprague-Dawley rats; laser to ears
  regional analgesic effect (ear withdrawal latency): achieved a regional analgesic effect in the head region
Sprague-Dawley rats; laser to hindpaws
  systemic analgesic effect (hindpaw withdrawal latency): without a systemic analgesic effect at the hindpaw
[1]; [5]
  sedation: mild sedation
  time for sedation to clear: ≤ 10 min
  time to onset of sedation: ≤ 5 min
[1]; first visit, 4 IU intranasal
  breast tenderness the day after treatment: some breast tenderness
  duration of pain relief: approximately 24 hours
  time for breast tenderness to resolve: ≤ 24 h
[1]; [6]
  headache pain by 15 minutes after administration: significantly reduced
  time until pain completely gone: ≤ 30 min
[1]; second visit about 1 month later, 4 IU intranasal 30 minutes after saline, baseline 8 out of 10
  time until pain completely gone: 20 to 25 min
[1]; second visit, 4 IU intranasal
  breast tenderness the following day: nor was there any breast tenderness
  sedation: no observed sedation
  time until pain returned after treatment: approximately 24 hours
[2]
  duration pain free: approximately 48 hours
[2]; baseline pain 5 out of 10
  time until pain completely gone: 10 to 15 min
“hangover” headache
  time until headache completely resolved: ≤ 15 min
“cluster” headache
  duration of relief: 24 h
  time until headache completely resolved: ≤ 15 min
Daily migraine
  pain rating after treatment: 2 out of 10
[3]
  neuronal response to noxious laser pulses (average nerve impulses per laser pulse): significantly (p<0.05) reduced
[4]; [7]
  responses (action potentials per 30 stimuli) after first administration: significant reduction in responses
  time of beginning of reduction in responses after first administration: 10 min
  time post treatment until which reduction continued (responses then began to increase): 50 min
[4]; [8]
  responses (action potentials per 30 stimuli) after second administration: significant reduction in responses
  time to reduction in responses after second administration: ≤ 10 min
